For two molecules, IC50 results are on record in article PMC9787943, “Calcium-Dependent Interplay of Lithium and Tricyclic Antidepressants, Amitriptyline and Desipramine, on N-methyl-D-aspartate Receptors” (International Journal of Molecular Sciences, 2022).

The subject of this experiment is T1, native di- and triheteromeric NMDARs composed of GluN1, GluN2A, and GluN2B subunits.
T1 construct: gene Grin1; native receptors in primary cultured cortical neurons (from fetal brains of 17-day pregnant rats, 10-14 days in culture); mixture of di- and triheteromers, heterotetramers with two GluN1 (known biology)
Description: whole-cell patch clamp of cultured neurons, NMDA-elicited currents. In kind it is cell-based, Rattus norvegicus. As to conditions: Na+ solution without Li+, 100 μM NMDA + 30 μM glycine, -70 mV, pH 7.2-7.4, 22-25 °C, no BAPTA, mode: Ca2+-dependent desensitization (paper suggests indirect, via NCX) plus open-channel bloc. The text has this: whole-cell patch clamp of cultured neurons, NMDA-elicited currents on native di- and triheteromeric NMDARs composed of GluN1, GluN2A, and GluN2B subunits
On the technique in general: The patch-clamp technique gives a direct electrical read-out from membranes.

Read-outs that look alike come from different tables or passages of the source.

What is called IC50 is the point on the concentration scale where inhibition reaches its midpoint.

Turning to `CN(C)CCC=C1c2ccccc2CCc2ccccc21` [Amitriptyline], the IC50 (2 mM Ca2+, read-out: IC50 ATL) amounted to 5 ± 1 µM.
`CNCCCN1c2ccccc2CCc2ccccc21` [Desipramine]: the IC50 (1 mM Ca2+, read-out: IC50 DES) was 1.75 ± 0.17 µM.
